Reference: patent publication US4170647A, “Method for the control of Arizona hinshawii in poultry with an alkylated BM123γ-type antibiotic” (American Cyanamid Company, priority 1978, dated 1979)

Test system: Arizona hinshawii
Assay: In vitro activity against six strains of Arizona hinshawii (minimum inhibitory concentration, broth dilution)
Type: cell-based
Settings: trypticase soy broth, 24 hours at 37° C.
Description: Serial, two-fold dilutions of drugs are prepared in trypticase soy broth (TSB). To each tube containing 5 ml of broth is added 0.1 ml of a 10^-3 dilution of bacterial inoculum (six strains of Arizona hinshawii, originally isolated from clinical cases of Arizonosis of turkeys), adjusted prior to dilution to 44% transmission at 645 mμ. An inoculated broth, containing no drug is included as growth control for each strain tested. The minimum inhibitory conentration (MIC) is read as the highest dilution of drug showing no visble growth after 24 hours incubation at 37° C.

Measured: Minimum Inhibitory Concentration

Gentamicin
2 µg/mL: Isolate Number 1 | Isolate Number 2 | Isolate Number 3 | Isolate Number 4 | Isolate Number 5 | Isolate Number 6
